We go through 16 compounds from BindingDB's records for doi:10.1002/cbic.200600287 (Mcgill University, 2007).

Common to all, as to test: PTP Assay
Test [1] deals with Receptor-type tyrosine-protein phosphatase F (Homo sapiens, UniProt P10586). The note with it: pH 6; 25 °C. The protocol: (§1) PTP assay were conducted at 25 C in 96-well plates. Reaction rates were determined using a Variokan plate reader from Thermo Electron. For assay pH 7.0 absorbance was measured every 30s over 10 min and the reaction rates were calculated by linear regression. Because the p-nitrophenol product does not absorb at pH 6.0.

Test [2] deals with T1, Tyrosine-protein phosphatase non-receptor type 2 (Homo sapiens, UniProt P17706).
T1 sequence (P17706 whole entry): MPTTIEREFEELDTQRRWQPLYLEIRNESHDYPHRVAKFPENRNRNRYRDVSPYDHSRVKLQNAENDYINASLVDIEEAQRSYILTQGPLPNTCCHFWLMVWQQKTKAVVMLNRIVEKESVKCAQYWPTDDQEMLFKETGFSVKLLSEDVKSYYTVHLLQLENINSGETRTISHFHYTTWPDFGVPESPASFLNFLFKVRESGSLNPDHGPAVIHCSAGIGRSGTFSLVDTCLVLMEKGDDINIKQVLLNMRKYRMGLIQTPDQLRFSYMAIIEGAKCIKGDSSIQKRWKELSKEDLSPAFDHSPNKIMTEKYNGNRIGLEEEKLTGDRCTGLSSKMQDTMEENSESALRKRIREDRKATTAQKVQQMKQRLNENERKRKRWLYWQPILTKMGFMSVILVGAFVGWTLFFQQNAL
The note with it: pH 7; 25 °C. The protocol:
as §1

The target of test [3] is Tyrosine-protein phosphatase non-receptor type 13 (Homo sapiens, UniProt Q12923). The note with it: pH 7; 25 °C. The protocol: as §1
Test [4] has as its target Tyrosine-protein phosphatase non-receptor type 6 (Homo sapiens, UniProt P29350). The note with it: pH 7; 25 °C. The protocol:
as §1

The target in test [5] is T2, Tyrosine-protein phosphatase non-receptor type 1 (Homo sapiens, UniProt P18031).
T2 sequence (P18031 whole entry): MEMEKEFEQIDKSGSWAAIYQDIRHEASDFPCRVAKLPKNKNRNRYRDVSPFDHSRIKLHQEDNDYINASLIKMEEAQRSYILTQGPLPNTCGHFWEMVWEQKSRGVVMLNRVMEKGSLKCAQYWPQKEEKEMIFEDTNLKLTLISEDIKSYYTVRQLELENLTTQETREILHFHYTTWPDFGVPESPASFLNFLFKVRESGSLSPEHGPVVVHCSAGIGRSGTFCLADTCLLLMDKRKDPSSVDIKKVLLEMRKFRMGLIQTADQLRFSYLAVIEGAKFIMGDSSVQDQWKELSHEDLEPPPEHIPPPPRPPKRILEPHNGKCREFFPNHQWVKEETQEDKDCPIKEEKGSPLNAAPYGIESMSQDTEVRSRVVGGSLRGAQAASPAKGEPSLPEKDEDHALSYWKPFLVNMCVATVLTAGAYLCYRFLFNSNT
The note with it: 25 °C. The protocol: as §1

In test [6] the target is T3, Dual specificity protein phosphatase 22 (Homo sapiens, UniProt Q9NRW4).
T3 sequence (Q9NRW4 whole entry): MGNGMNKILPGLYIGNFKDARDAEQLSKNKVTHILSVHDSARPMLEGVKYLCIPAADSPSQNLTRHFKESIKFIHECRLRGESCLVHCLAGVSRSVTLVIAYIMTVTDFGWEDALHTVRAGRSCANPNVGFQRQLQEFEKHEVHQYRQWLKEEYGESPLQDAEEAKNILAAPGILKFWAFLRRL
The note with it: pH 6; 25 °C. The protocol:
as §1

The target in test [7] is T4, Tyrosine-protein phosphatase non-receptor type 7 (Homo sapiens, UniProt P35236).
T4 sequence (P35236 whole entry): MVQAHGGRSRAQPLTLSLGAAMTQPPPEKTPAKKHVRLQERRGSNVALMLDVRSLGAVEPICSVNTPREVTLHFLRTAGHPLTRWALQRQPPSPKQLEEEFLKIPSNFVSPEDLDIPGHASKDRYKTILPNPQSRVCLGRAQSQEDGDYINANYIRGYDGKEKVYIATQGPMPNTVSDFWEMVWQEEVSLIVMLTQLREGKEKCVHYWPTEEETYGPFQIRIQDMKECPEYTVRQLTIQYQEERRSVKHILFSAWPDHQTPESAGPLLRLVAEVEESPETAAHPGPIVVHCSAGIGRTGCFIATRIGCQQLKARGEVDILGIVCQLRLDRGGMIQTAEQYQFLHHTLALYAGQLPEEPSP
The note with it: pH 7; 25 °C. The protocol:
as §1

Sequence of Tyrosine-protein phosphatase non-receptor type 6 (P29350 whole entry): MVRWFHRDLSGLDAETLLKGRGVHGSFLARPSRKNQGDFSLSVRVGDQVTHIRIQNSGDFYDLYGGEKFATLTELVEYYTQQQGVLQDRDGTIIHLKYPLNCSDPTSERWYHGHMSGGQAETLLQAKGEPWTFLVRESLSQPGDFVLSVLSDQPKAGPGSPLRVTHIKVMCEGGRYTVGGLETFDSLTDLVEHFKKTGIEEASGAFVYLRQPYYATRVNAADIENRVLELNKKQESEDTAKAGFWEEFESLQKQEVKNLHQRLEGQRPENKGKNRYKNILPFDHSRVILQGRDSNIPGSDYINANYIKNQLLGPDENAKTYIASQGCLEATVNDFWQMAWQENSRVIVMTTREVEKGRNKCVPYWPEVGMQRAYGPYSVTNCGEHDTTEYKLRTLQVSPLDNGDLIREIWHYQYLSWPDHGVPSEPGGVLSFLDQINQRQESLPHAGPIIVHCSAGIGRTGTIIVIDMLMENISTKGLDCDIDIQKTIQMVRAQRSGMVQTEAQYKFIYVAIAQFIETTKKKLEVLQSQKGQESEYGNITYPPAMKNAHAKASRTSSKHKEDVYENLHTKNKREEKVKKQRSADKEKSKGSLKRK
Sequence of Receptor-type tyrosine-protein phosphatase F (P10586 whole entry): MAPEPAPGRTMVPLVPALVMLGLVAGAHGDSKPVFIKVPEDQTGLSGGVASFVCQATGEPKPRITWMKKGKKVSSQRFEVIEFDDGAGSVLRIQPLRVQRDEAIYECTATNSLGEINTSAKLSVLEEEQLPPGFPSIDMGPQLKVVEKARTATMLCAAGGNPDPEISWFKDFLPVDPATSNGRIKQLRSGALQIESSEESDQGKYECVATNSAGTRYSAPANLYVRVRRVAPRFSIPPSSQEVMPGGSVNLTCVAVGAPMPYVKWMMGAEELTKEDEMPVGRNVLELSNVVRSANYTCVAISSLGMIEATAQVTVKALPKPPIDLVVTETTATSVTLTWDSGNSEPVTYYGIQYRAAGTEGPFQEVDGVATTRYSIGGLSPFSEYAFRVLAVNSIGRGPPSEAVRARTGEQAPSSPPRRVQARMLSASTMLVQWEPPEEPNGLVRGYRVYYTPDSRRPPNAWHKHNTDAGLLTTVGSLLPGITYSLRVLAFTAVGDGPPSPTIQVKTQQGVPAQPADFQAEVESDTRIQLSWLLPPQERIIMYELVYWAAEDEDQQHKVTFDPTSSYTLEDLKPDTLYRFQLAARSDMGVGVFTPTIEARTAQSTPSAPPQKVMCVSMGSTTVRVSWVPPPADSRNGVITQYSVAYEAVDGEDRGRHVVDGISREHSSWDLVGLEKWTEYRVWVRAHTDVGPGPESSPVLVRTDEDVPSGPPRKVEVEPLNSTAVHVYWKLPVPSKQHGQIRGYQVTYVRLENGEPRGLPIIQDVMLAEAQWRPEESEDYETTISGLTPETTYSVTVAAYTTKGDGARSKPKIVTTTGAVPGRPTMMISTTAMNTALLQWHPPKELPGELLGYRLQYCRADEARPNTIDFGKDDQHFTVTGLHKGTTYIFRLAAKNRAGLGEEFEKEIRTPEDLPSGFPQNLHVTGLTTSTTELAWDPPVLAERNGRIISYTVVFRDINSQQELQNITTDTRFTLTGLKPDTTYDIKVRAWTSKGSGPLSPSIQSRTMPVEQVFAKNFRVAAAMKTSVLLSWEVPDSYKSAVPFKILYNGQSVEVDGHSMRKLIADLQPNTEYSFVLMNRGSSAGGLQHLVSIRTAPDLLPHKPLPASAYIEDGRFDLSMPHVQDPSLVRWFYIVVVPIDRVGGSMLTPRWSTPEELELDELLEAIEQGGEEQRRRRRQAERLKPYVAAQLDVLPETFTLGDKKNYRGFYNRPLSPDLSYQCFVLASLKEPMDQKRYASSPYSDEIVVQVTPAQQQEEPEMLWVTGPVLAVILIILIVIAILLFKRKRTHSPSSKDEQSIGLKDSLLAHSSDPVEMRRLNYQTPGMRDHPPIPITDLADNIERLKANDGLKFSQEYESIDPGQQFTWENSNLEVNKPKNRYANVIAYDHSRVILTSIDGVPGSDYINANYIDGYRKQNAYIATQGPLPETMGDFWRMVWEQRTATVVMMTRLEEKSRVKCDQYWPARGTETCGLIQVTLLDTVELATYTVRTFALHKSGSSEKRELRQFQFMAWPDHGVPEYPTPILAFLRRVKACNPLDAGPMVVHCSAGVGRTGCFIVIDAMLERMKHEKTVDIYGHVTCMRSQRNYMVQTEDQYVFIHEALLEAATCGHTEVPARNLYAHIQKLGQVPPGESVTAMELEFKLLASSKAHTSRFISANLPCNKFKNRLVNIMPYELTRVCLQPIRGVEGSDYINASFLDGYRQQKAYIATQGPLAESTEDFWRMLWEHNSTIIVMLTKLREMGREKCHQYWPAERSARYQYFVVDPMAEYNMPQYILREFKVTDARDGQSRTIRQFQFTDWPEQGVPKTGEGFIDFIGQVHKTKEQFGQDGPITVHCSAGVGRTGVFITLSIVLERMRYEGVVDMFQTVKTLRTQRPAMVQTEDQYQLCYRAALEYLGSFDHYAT
Sequence of Tyrosine-protein phosphatase non-receptor type 13 (Q12923 whole entry): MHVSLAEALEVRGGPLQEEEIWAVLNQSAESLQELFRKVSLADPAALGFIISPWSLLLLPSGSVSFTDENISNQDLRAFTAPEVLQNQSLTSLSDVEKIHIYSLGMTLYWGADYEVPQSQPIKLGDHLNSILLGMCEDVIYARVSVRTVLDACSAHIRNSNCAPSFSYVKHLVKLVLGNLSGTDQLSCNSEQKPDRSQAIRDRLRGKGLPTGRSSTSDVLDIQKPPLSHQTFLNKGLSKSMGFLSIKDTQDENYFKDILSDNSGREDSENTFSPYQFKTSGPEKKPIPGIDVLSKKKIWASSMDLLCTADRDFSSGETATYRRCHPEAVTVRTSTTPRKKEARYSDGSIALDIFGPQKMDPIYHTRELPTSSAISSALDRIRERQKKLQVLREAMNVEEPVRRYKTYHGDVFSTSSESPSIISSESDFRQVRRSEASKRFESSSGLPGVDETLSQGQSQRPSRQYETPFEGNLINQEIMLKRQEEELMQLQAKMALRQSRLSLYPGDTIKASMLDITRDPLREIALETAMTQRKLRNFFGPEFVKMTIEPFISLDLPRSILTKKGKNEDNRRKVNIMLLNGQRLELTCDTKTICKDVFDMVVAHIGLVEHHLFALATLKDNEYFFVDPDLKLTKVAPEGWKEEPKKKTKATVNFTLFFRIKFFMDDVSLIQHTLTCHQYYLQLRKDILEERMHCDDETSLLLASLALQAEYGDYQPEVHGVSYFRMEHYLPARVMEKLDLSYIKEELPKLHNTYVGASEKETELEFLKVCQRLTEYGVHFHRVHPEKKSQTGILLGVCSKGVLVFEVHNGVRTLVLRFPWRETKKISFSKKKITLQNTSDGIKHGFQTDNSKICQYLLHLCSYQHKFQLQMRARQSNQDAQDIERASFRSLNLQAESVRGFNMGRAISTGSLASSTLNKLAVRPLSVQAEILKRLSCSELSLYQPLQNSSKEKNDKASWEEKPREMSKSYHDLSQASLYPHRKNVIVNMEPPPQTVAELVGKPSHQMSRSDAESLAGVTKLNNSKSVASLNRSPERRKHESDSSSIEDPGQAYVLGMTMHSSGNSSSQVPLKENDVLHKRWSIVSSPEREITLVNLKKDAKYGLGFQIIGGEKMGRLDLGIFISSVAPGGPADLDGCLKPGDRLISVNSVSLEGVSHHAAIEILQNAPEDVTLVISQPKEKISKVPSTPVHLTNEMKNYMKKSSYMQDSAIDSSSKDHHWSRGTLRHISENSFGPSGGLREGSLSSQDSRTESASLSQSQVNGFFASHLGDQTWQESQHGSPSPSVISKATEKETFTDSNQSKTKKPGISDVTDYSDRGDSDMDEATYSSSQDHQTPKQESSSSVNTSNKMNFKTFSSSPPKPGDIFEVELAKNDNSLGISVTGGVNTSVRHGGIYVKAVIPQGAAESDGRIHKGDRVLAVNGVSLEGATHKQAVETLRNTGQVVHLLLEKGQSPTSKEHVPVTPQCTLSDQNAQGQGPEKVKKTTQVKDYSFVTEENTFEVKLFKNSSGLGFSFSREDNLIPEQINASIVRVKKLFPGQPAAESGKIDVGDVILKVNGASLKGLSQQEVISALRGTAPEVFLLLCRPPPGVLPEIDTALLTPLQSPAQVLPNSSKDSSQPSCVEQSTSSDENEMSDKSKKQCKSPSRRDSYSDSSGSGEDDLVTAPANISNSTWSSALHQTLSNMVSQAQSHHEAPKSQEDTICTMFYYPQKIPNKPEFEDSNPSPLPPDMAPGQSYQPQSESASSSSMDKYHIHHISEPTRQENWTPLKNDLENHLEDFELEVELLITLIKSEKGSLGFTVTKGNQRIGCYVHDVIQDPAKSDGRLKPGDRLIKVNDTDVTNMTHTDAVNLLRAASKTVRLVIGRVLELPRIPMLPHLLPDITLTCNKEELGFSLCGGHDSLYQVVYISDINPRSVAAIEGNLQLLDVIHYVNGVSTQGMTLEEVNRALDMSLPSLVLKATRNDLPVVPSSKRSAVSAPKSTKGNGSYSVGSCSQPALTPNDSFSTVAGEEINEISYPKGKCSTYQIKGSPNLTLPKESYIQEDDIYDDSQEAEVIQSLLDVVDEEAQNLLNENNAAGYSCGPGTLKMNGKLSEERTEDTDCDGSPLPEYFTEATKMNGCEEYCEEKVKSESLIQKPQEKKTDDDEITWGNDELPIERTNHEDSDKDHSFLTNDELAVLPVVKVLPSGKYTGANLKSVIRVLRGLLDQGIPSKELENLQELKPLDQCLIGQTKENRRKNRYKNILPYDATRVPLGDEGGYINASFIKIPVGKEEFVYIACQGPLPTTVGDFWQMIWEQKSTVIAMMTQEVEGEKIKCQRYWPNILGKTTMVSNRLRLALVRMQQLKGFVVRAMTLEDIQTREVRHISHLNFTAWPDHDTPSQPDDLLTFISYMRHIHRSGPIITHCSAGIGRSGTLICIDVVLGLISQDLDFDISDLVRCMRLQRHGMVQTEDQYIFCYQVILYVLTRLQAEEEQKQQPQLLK

Regarding `COc1cc(/C=C2\SC(=S)N(c3cccc(Cl)c3)C2=O)cc([N+](=O)[O-])c1O` [Thioxothiazolidinone derivative, 1], the IC50 (as a rule, the midpoint of a concentration-inhibition curve) in test [1] is above 50 µM; in test [2], 5.3 µM; in test [3], 3.7 µM; in test [4], 3.9 µM; in test [5] (pH 6), 4.3 µM; in test [5] (pH 7), 4.1 µM. For the same compound, the IC50 is above 50 µM in test [6] and 9.3 µM in test [7].

The compound `COc1cc(/C=C2\SC(=S)N(c3ccccc3)C2=O)cc([N+](=O)[O-])c1O` [Thioxothiazolidinone derivative, 3] had an IC50 in test [5] above 100 µM.

On to `COc1cc(/C=C2\SC(=S)N(c3ccc(Cl)cc3)C2=O)cc([N+](=O)[O-])c1O` [Thioxothiazolidinone derivative, 4], for which half-maximal inhibition in test [5] (IC50) was put at 5.4 µM.

As to `COc1cc(/C=C2\SC(=S)N(c3cccc(F)c3)C2=O)cc([N+](=O)[O-])c1O` [Thioxothiazolidinone derivative, 5], the IC50 in test [5] worked out at 12 µM.

The compound `COc1cc(/C=C2\SC(=S)N(c3cccc(C)c3)C2=O)cc([N+](=O)[O-])c1O` [Thioxothiazolidinone derivative, 6] returned an IC50 in test [5] of 29 µM.

Consider `COc1cccc(N2C(=O)/C(=C/c3cc(OC)c(O)c([N+](=O)[O-])c3)SC2=S)c1` [Thioxothiazolidinone derivative, 7], for which the IC50 in test [5] came out at 16 µM.

As to `COc1cc(/C=C2\SC(=S)N(c3ccc(O)cc3)C2=O)cc([N+](=O)[O-])c1O` [Thioxothiazolidinone derivative, 8], in test [5], the concentration for half-maximal inhibition (IC50) was determined as 29 µM.

`COc1cc(/C=C2\SC(=S)N(c3ccc(C)cc3)C2=O)cc([N+](=O)[O-])c1O` [Thioxothiazolidinone derivative, 9] registered an IC50 in test [5] of 8.8 µM.

On to `COc1ccc(N2C(=O)/C(=C/c3cc(OC)c(O)c([N+](=O)[O-])c3)SC2=S)cc1` [Thioxothiazolidinone derivative, 10], for which the concentration for half-maximal inhibition (IC50) in test [5] was determined as 6.3 µM.

In turn, `COc1cc(/C=C2\SC(=S)N(c3ccc([N+](=O)[O-])cc3)C2=O)cc([N+](=O)[O-])c1O` [Thioxothiazolidinone derivative, 11] yielded an IC50 in test [5] of 7 µM.

In test [5], `COc1cc(/C=C2\SC(=S)N(c3ccc(Cl)c(Cl)c3)C2=O)cc([N+](=O)[O-])c1O` [Thioxothiazolidinone derivative, 12] came in with an IC50 of 7 µM.

In turn, `O=C1/C(=C/c2ccc(O)c([N+](=O)[O-])c2)SC(=S)N1c1cccc(Cl)c1` [Thioxothiazolidinone derivative, 13] came in with a 50% inhibitory concentration (IC50) in test [5] of 68 µM.

For `COc1cc(/C=C2\SC(=S)N(c3cccc(Cl)c3)C2=O)ccc1O` [Thioxothiazolidinone derivative, 14], the IC50 in test [5] came to 44 µM.

With `O=C1/C(=C/c2cc(O)c(O)c([N+](=O)[O-])c2)SC(=S)N1c1cccc(Cl)c1` [Thioxothiazolidinone derivative, 15], half-maximal inhibition in test [5] (IC50) was put at 18.1 µM.

In test [5], `COc1cc(/C=C2\SC(=S)N(c3cccc(Cl)c3)C2=O)cc(C(=O)O)c1O` [Thioxothiazolidinone derivative, 17] had an IC50 of 7.3 µM.

For `COc1cc(C=C2SC(=S)N(c3cccc(Cl)c3)C2=O)cc(CP(=O)(O)O)c1O` [Thioxothiazolidinone derivative, 18], in test [5], the IC50 is above 100 µM.
